Reference: PubChem BioAssay (NCI)
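Exposure lasted 48 hours, with cells grown in 96-well plates and compounds tested at five concentrations. GI50 = concentration required for 50% inhibition of growth. TGI denotes the concentration required for complete inhibition of growth.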

What was measured:
Test in all cases: DTP human tumour cell line panel, 48 h
MCF7 breast = test system: MCF7 breast
HCT-15 colon = test system: HCT-15 colon
HL-60(TB) leukemia = test system: HL-60(TB) leukemia
COLO 205 colon = test system: COLO 205 colon
SK-MEL-28 melanoma = test system: SK-MEL-28 melanoma
OVCAR-4 ovarian = test system: OVCAR-4 ovarian
HCC-2998 colon = test system: HCC-2998 colon
NCI-H226 lung = test system: NCI-H226 lung
SR leukemia = test system: SR leukemia
U251 CNS = test system: U251 CNS

| SMILES | GI50 (MCF7 breast) | TGI (MCF7 breast) | GI50 (HCT-15 colon) | TGI (HCT-15 colon) | GI50 (HL-60(TB) leukemia) | TGI (HL-60(TB) leukemia) | GI50 (COLO 205 colon) | TGI (COLO 205 colon) | GI50 (SK-MEL-28 melanoma) | TGI (SK-MEL-28 melanoma) | GI50 (OVCAR-4 ovarian) | TGI (OVCAR-4 ovarian) | GI50 (HCC-2998 colon) | TGI (HCC-2998 colon) | GI50 (NCI-H226 lung) | TGI (NCI-H226 lung) | GI50 (SR leukemia) | TGI (SR leukemia) | GI50 (U251 CNS) | TGI (U251 CNS) |
| --- | --- | --- | --- | --- | --- | --- | --- | --- | --- | --- | --- | --- | --- | --- | --- | --- | --- | --- | --- | --- |
| COC12C=C/C(=C(/C(=O)OCc3csc(SC)n3)C(=O)CCCCCCCCC3(OC)C=C/C(=C(/C(=O)OCc4cnc(SC)s4)C(=O)CCCCCCCC1)O3)O2 (stereo not given) | 1.13 µM | > 100 µM | 17 µM | > 100 µM | 3.1 µM | > 100 µM | 3.44 µM | > 100 µM | 0.955 µM | > 100 µM | 3.19 µM | > 100 µM | 2.34 µM | 5.11 µM | 3.48 µM | 17.1 µM | 2.05 µM | > 100 µM | 3.98 µM | 43.6 µM |
| C/C(N=NC(=S)N1CCCCCC1)=C1\C=CC=CN1O |  | > 100 µM |  | > 100 µM |  | 1.74 µM |  | 55.2 µM |  | > 96.3 µM |  | > 100 µM |  | > 100 µM |  | > 90.3 µM |  | > 100 µM |  | > 100 µM |
| C=C[C@@]1(C)CC(=O)[C@]2(O)[C@@]3(C)[C@@H](O)CCC(C)(C)[C@@H]3[C@H](O)[C@@H](OC(C)=O)[C@@]2(C)O1 |  | > 100 µM |  | > 100 µM |  | > 100 µM |  | > 100 µM |  | > 100 µM |  | > 100 µM |  | > 100 µM |  | > 100 µM |  | > 100 µM |  | > 100 µM |
| CC(=O)Oc1ccc2c(c1)O/C(=C\c1ccc(O)cc1)C2=O |  | > 100 µM |  | > 100 µM |  | > 100 µM |  | > 100 µM |  | > 100 µM |  | > 100 µM |  | > 100 µM |  | > 100 µM |  | > 100 µM |  | > 100 µM |
| COC(=O)C1=C(C(=O)OC)C(C(=O)OC)C(C(=O)OC)C(C(=O)OC)(C(=O)OC)C(C(=O)OC)=C1C(=O)OC (stereo not given) |  | 33.6 µM |  | 21.2 µM |  | 4.95 µM |  | 16.8 µM |  | 29.3 µM |  | > 52 µM |  | 31 µM |  | 25.1 µM |  | 3.34 µM |  | 31 µM |
